According to patent US10046060B2, “Co-administration of an agent linked to an internalization peptide with an anti-inflammatory” (NoNO Inc., priority 2007, dated 2018):
Read-outs that look alike come from different tables or passages of the source. Square brackets hold non-standard residues; d marks the D form. Ends that are not written are not given here.

Tests used:
[1] = Table 1 comment; cited from earlier work
PSD95 / NMDAR 2B = PSD95 / NMDAR 2B (Homo sapiens, UniProt P78352); details: reported by Bach; cited from earlier work
mast cells = assay: Mast cell degranulation assay (tryptase activity); assay type: cell-based, mouse; design: Mast cell degranulation (relative tryptase activity): dose or concentration left out as unconfirmed; details: for Dose dependence of mast cell degranulation: increasing concentrations, FIG. 3
[2] = tested on: Sprague Dawley rats, P3VO model of stroke; assay: Pial 3 vessel occlusion (P3VO) model of stroke, infarct size; assay type: in vivo, rat; details: 3 nM/g i.v. 1 h after stroke, vs saline
rat 3PVO model of stroke = assay: Rat 3PVO model of stroke, lodoxamide co-formulation; assay type: in vivo; details: FIG. 15
Protocol: Methods for Three pial vessel occlusion model of ischemia (3PVO): Experiments were performed on fasted rats (free overnight access to water but not food). […] In brief, rats were anesthetized with a 0.5 ml/kg intramuscular injection of ketamine (100 mg/kg), acepromazine (2 mg/kg), and xylazine (5 mg/kg), supplemented with one-third of the initial dose as required. A rectal temperature was monitored and the animal body temperature was maintained at 37° C. by using a heating pad. The skull was exposed via a midline incision and scraped free of tissue. Using a dissecting microscope and a pneumatic dental drill, a 6- to 8-mm rectangular cranial window was made over the right somatosensory cortex (2 mm caudal and 5 mm lateral to bregma) and the loose piece of skull was removed while keeping the dura intact. The 3 pial arteriolar middle cerebral artery branches were electrically cauterized around the barrel cortex area. Incision was sutured with 3.0 silk sutures. Animals were returned to individual cages under a heating lamp to maintain body temperature until the rats fully recovered. Food and water was supplied. One hour after 3PVO ischemia the rats were injected with 3 μM/kg Tat-NR2B9c or Rv-Tat-NR2B9c intravenously through tail vein. […] Images were scanned (CanoScan, 4200F, Canon). Infarct percentage was calculated per slice using Image J software (NIH). […]

rats = assay: Mean arterial pressure (MAP) in rats after Tat peptides with or without anti-inflammatory agents
cerebral ischemia = details: reported in WO 2008/014917; cited from earlier work
Sprague Dawley rats = assay: MAP in rats: lodoxamide co-formulation or cromolyn infusion with Tat-NR2B9c; assay type: in vivo, rat; details: for Effect on drop in MAP resulting from Tat-NR2B9c: cromolyn infused for three minutes immediately before Tat-NR2B9c, FIG. 13B
Protocol: Animals (male, Sprague Dawley) were allowed to eat and drink before surgery. Animals were put to sleep in a chamber with 2% isoflurane and 1 L oxygen. Once asleep, rat was transferred to a face mask at 1% isoflurane and a gas of 1 L oxygen. PE50 tubing was used for connection of the femoral artery and vein. These arteries and veins provide access for continual monitoring of arterial pressure and for drug infusion (50 mg per kg in a volume of 2 ml per kg injected with in 2 minutes). Surgeries were done on the left side. Animal's blood pressure and body temperature was monitored for 90 minutes.

[3] = tested on: animal model of infarction; details: cited from earlier work
Beagle dogs = assay: Antihistamine pre-treatment before Tat-NR2B9c in dogs; details: benadryl 1 mg/kg 30 minutes before 12.5 mg/kg Tat-NR2B9c; female dog

Sequence of PSD95 / NMDAR 2B (P78352 whole entry): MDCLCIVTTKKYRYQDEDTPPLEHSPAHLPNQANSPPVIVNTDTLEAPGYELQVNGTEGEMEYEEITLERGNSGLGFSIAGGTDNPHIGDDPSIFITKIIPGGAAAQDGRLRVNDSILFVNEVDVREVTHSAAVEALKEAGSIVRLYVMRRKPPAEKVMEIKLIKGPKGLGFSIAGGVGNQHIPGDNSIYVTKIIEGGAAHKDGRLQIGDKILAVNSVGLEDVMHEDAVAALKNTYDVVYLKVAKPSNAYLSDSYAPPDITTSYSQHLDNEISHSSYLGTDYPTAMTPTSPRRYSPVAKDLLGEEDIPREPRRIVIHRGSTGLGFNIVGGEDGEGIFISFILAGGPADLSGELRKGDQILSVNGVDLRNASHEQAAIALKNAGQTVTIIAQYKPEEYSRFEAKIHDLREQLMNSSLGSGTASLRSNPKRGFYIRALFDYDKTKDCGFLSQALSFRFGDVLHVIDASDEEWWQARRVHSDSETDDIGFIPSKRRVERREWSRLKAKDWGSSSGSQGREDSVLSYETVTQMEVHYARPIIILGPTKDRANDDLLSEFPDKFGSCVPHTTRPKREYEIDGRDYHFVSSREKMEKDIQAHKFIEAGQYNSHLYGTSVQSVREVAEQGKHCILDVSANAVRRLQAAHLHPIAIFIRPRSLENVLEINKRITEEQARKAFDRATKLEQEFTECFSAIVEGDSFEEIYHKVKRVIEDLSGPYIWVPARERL

## NC(=O)CN1CCCC1=O [Piracetam]
[1]
  BBB crossing: Cannot cross

## IESDV (synthetic pentamer peptide from the C-terminus of NMDAR 2B)
PSD95 / NMDAR 2B
  Inhibition of binding of NMDAR 2B to PSD95: effective in inhibiting binding of NMDAR 2B to PSD95

## YGRKKRRQRRRKLSSIEADA (Synthetic Tat-NR2B9c peptide with 2 point mutations in the PSD-95 binding domain) [AA]
Mast cells
  Dose dependence of mast cell degranulation: dose dependent

## H-YGRKKRRQRRRKLSSIESDV-OH [Tat-NR2B9c]
[2]; female rats
  Infarct size 24 hours after P3VO surgery: complete lack of infarct
[2]; male rats
  Infarct size 24 hours after P3VO surgery: significantly decreased infarct size
Mast cells
  Dose dependence of mast cell degranulation: dose dependent
Rat 3PVO model of stroke
  Infarction size relative to vehicle control: significantly inhibited infarction size

## KLSSIESDV (Synthetic pharmacologic agent) [NR2B9c]
Mast cells; FIG. 2
  Mast cell degranulation (relative tryptase activity): did not
Mast cells; all at 50 μM, Table 5 prints 125 mg/ml, FIG. 4
  Mast cell degranulation, Tat sequence variants: did not elicit this reaction

## COc1ccc(CN(CCN(C)C)c2ccccn2)cc1 [pyrilamine]
rats; pyrilamine, FIGS. 10A-D
  Reduction of maximal decline in blood pressure due to Tat-NR2B9c: did not achieve statistical significance

## vdseisslk-rrrqrrkkrgyin ([dV][dD][dS][dE][dI][dS][dS][dL][dK][dR][dR][dR][dQ][dR][dR][dK][dK][dR]G[dY][dI][dN]; also: retro-inverso)
Cerebral ischemia
  Inhibition of cerebral ischemia: effective in inhibiting cerebral ischemia

## CN[C@H](CC(C)C)C(=O)N[C@H]1C(=O)N[C@@H](CC(N)=O)C(=O)N[C@H]2C(=O)N[C@H]3C(=O)N[C@H](C(=O)N[C@H](C(=O)O)c4cc(O)cc(O)c4-c4cc3ccc4O)[C@H](O)c3ccc(c(Cl)c3)Oc3cc2cc(c3O[C@@H]2O[C@H](CO)[C@@H](O)[C@H](O)[C@H]2O[C@H]2C[C@](C)(N)[C@H](O)[C@H](C)O2)Oc2ccc(cc2Cl)[C@H]1O [Vacomycin]
[1]
  halflife: uptake, 4-6 hr

## N#Cc1cc(NC(=O)C(=O)O)c(Cl)c(NC(=O)C(=O)O)c1 [lodoxamide, 2-[2-chloro-5-cyano-3-(oxaloamino)anilino]-2-oxoacetic acid]
Sprague Dawley rats; 6 mg/kg lodoxamide co-formulated with Tat-NR2B9c (3 mg/kg, 3 mM/kg elsewhere in the source), 2 minute infusion, FIG. 13A
  Effect on drop in MAP resulting from Tat-NR2B9c injection: completely abrogate the drop in MAP

## CNC(=C[N+](=O)[O-])NCCSCc1ccc(CN(C)C)o1 [Ranitidine]
rats; Ranitidine only
  Effect of the agent itself on MAP: no effect on MAP itself

## N[C@@H](Cc1ccc(O)c(O)c1)C(=O)O [Levodopa]
[1]
  halflife: halflife = 1.5 hrs

## NCCc1ccc(O)c(O)c1 [Dopamine]
[1]
  BBB crossing: Cannot cross

## O=C(O)c1cc(=O)c2c(OCC(O)COc3cccc4oc(C(=O)O)cc(=O)c34)cccc2o1 [cromolyn, 5,5′-(2-hydroxypropane-1,3-diyl)bis(oxy)bis(4-oxo-4H-chromene-2-carboxylic acid)]
Sprague Dawley rats
  Effect on drop in MAP resulting from Tat-NR2B9c: completely abrogate a drop in MAP
Sprague Dawley rats; listed as Cromolyn
  Effect on drop in MAP resulting from Tat-NR2B9c: completely abrogated the drop in MAP
[3]; administered i.c.v.
  Direct activity in inhibiting infarctions: has direct activity in inhibiting infarctions
[3]; administered intravenously
  Direct activity in inhibiting infarctions: not intravenously
rats; cromolyn before Rv-Tat-NR2B9c, FIGS. 8E and F
  Effect on decline of MAP due to Rv-Tat-NR2B9c: significantly inhibited decline of MAP values
rats; cromolyn plus saline control
  Effect on MAP in the absence of Tat-NR2B9c: did not itself affect MAP

## CN(C)CCOC(c1ccccc1)c1ccccc1 [diphenhydramine]
Beagle dogs
  Reaction after pre-treatment: no reaction
rats; diphenhydramine 1 mg/kg
  Effect of the agent itself on blood pressure: did not itself reduce blood pressure
  Effect on decline of blood pressure due to Tat-NR2B9c: not observed to have a significant effect
rats; diphenhydramine 12.5 mg/kg
  Effect of the agent itself on blood pressure before Tat-NR2B9c: caused a sharp reduction in blood pressure
rats; diphenhydramine 12.5 mg/kg, FIGS. 9A-D
  Effect on decline in blood pressure due to Tat-NR2B9c: significantly inhibited decline in blood pressure
